Patent publication US4952405A, “Method of treating M. avium infection” (Liposome Technology, Inc., priority 1988, dated 1990)
Entries after “also recorded” stand apart in the source; their conditions may differ.

What was measured:
MAC 101 serotype 1 [1] = assay: MIC against MAC 101 serotype 1 in culture; type: cell-based, Mycobacterium avium complex; details: strain 101 serotype 1, bacterial culture
Method: Among the aminoglycosides, amikacin has been used for treating MAC infection due to its relatively low minimum inhibitory concentration, particularly in the case of certain MAC serotypes. […] Gentamicin would therefore not be expected to be effective in vivo since the toxic level of gentamicin is about 12 μg/ml in the blood, and therefore it is not possible to maintain patients at the inhibitory dose for sustained therapeutic periods. It would be desirable to treat M. avium infection in humans with gentamicin, however, because of the relatively low cost of the drug.

MAC 101 (serotype 1) [2] = assay: Efficacy against MAC infection in blood of beige mice; type: in vivo, Mycobacterium avium complex; beige mice; details: for effect on viable MAC units in blood: 0.2 mg and 1.0 mg doses, five I.V. injections, day 7 to 22, FIGS. 2A, 2B; for effect on MAC in the blood: higher dose (1.0 mg)
Method: (§1) Briefly, the animals were infected by I.V. injection of MAC, then treated with control, gentamicin, or gentamicin-liposome formulations 7 days later, with a total of five intravenous injections being given over a 9-day treatment period. The level of viable MAC units (cfu's) in the blood was examined at day 7 (before treatment), day 16 (immediately after the five treatment doses) and day 22. […] For both aminoglycoside drugs, dosages of 0.2 mg and 1.0 mg drug were given.
(§2) Immune deficient "beige" mice (Young, 1986) were infected intravenously with 5×10^6 of MAC 101 (serotype 1) on day 0. After 7 days, blood samples were drawn to quantitate the organisms in the blood prior to treatment. […] On the 16th day, the treated mice were bled and the number of viable MAC units in blood was determined. A week later (day 22), the mice were bled again and sacrificed. The liver and spleen were homogenized and the viable MAC were cultured in 7H10 agar for 10 days for colony counts.

[3] = Renal clearance / drug excretion, free vs liposomal; type: in vivo; details: after 4 days, mice
Method: To examine the difference in drug clearance between free aminoglycoside and an aminoglycoside-liposome composition, free amikacin and amikacin-liposomes were administered to groups of mice, as above, and the amount of drug excreted by the animals over a several-day period was examined.

MAC 101 serotype 1 [4] = details: cited from earlier work
serotype 4 strain of MAC = details: Yajko; cited from earlier work
[5] = Tolerability of higher gentamicin dose in MAC-infected mice; type: in vivo; details: about 4 mg per 20 gm mouse
From the text: This was confirmed by attempting to further reduce MAC infection by administering higher gentamicin dose.

[6] = cited from earlier work
MAC 101 (serotype 1) [7] = assay: Efficacy against MAC infection in liver and spleen of beige mice; type: in vivo, Mycobacterium avium complex; beige mice; details: for bacteriocidal effect in RES organs (liver, spleen), words: day 22, FIGS. 3A, 3B
Method: as §1, §2

Compound | relative activity / MIC in MAC culture, amikacin vs gentamicin (MAC 101 serotype 1 [1]) | effect on viable MAC units in blood (MAC 101 (serotype 1) [2]) | effect on viable MAC units in blood (MAC 101 (serotype 1) [2]; listed as free amikacin) | effect on MAC in the blood (MAC 101 (serotype 1) [2]) | drug excreted ([3]; 5760 min) | dose excreted at 96 h ([3]; mouse, in vivo, iv) [%] | minimum inhibitory concentration (MIC) (MAC 101 serotype 1 [4]) [µg/mL] | MIC (serotype 4 strain of MAC) [µg/mL] | tolerability / animal deaths [5] | effect on viable MAC units in blood (MAC 101 (serotype 1) [2]; listed as Free gentamicin) | effect on viable MAC units in blood (MAC 101 (serotype 1) [2]; listed as free gentamicin) | toxic level in the blood [6] | effect on MAC in the spleen (MAC 101 (serotype 1) [7]; both doses) | bacteriocidal effect in RES organs (liver, spleen), words (MAC 101 (serotype 1) [7]; listed as Free gentamicin) | bacteriocidal effect in RES organs (liver, spleen), words (MAC 101 (serotype 1) [7]; listed as free gentamicin) | effect on MAC in the liver (MAC 101 (serotype 1) [7]; high dose (1.0 mg/kg as printed)) | effect on MAC in the liver (MAC 101 (serotype 1) [7]; low dose (0.2 mg/kg as printed))
NCC[C@H](O)C(=O)N[C@@H]1C[C@H](N)[C@@H](O[C@H]2O[C@H](CN)[C@@H](O)[C@H](O)[C@H]2O)[C@H](O)[C@H]1O[C@H]1O[C@H](CO)[C@@H](O)[C@H](N)[C@H]1O [amikacin] | nearly an order of magnitude less than that of gentamicin | largely ineffective | Qualitatively similar results | significant inhibitory effect on MAC in the blood | about 80% | ~80 | 2 to 4 | 16 to 32 |  |  |  |  |  |  |  |  | 
gentamicin | substantially less active than free amikacin |  |  | not gentamicin |  |  | 36 | 16 to 32 | large percentage of animal deaths | no measurable activity against MAC in the bloodstream | no appreciable inhibitory effect; also recorded: No appreciable inhibition; also recorded: largely ineffective | about 12 μg/ml | moderate killing | only modest activity against infection in RES organs | about the same degree of bacteriocidal action as free amikacin | moderate killing activity | inhibitory effect on the growth of MAC
